Target: Dipeptidyl peptidase 1 (Homo sapiens, UniProt P53634)
Assay: Inhibition Assay: The following buffers were used: MES buffer: 25 mM MES, 50 mM NaCl, 5 mM DTT, adjusted to pH 6.0, containing 0.1% BSA; TAGZyme Buffer: 20 mM NaH2PO4, 150 mM NaCl adjusted to pH is 6.0 with HClAssay Conditions:The recombinant human DPPI was diluted in TAGZyme buffer to 1 U/ml (38.1 ug/ml, respectively), and then activated by mixing in a 1:2 ratio with a Cysteamine aqueous solution (2 mM) and incubating for 5 mM at room temperature.Five uL test compound (final concentration 0.1 nM to 100 uM) in aqua bidest (containing 4% DMSO, final DMSO concentration 1%) were mixed with 10 uL of DPPI in MES buffer (final concentration 0.0125 ng/uL) and incubated for 10 min. Then, 5 uL of substrate in MES buffer (final concentration 50 uM) were added. The microtiter plates were then incubated at room temperature for […] Then, the reaction was stopped by adding 10 uL of Gly-Phe-DMK in MES-buffer (final concentration 1 uM).

Dipeptidyl peptidase 1, sequence (P53634 25-134 limits assumed): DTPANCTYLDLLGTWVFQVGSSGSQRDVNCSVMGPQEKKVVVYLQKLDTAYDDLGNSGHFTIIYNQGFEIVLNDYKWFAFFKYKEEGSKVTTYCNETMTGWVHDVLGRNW
Dipeptidyl peptidase 1, sequence (P53634 231-394 limits assumed): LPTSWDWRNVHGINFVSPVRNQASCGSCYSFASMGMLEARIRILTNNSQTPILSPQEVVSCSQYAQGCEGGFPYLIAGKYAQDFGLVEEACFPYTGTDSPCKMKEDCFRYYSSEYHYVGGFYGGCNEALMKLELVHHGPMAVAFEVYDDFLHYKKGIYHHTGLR
Dipeptidyl peptidase 1, sequence (P53634 395-463 limits assumed): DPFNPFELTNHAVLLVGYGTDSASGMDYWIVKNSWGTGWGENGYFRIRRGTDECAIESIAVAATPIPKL

SMILES: CN1C(=O)Cc2ccc(-c3sc(CC(C#N)NC(=O)[C@H]4N[C@@H]5CC[C@H]4C5)c(F)c3Br)cc21 (stereo partly specified)
- Ki: 3.6 nM
